Test results published in article PMC10957775, “Integrated chemical characterization, metabolite profiling, and pharmacokinetics analysis of Zhijun Tangshen Decoction by UPLC-Q/TOF-MS” (Frontiers in Pharmacology, 2024).
Like-named read-outs stand apart in the source and are kept apart here.

Columns and labels:
in vivo = conditions: male, Sprague-Dawley, rat, po; for half-life: t1/2
Description: (§1) Thirty male Sprague–Dawley rats (200 ± 20 g) were purchased from the Nanjing Qinglongshan Experimental Animal Center (Nanjing, China). […] All rats were divided randomly into two groups: ZJTSD-dosed group (n = 27) and control group (n = 3). The ZJTSD-dosed group was given the ZJTSD solution by gavage (i.g.) at a dosage of 1 mL/100 g body weight of rats, and the control group was given 0.9% normal saline at the same dose, twice a day for a week. After the last administration, the blood was collected from the hepatic portal vein at 15 min, 30 min, 1 h, 2 h, 4 h, 6 h, 8 h, 12 h, and 24 h, and 3 rats were taken at each time point.
(§2) The blood samples of rats were centrifuged at 4,000 rpm for 10 min to obtain the serum. The serum sample (1 mL) was processed with a 3-fold volume using methanol for protein precipitation, with epicoprostanol serving as the internal standard (digoxin and clarithromycin). After vortexing for 3 min, the mixture was centrifuged at 18,000 rpm for 10 min. Subsequently, the supernatant was evaporated at 45°C using a vacuum concentrator. After evaporating the solvent, 150 μL of methanol/water (1:1, v/v) was added, vortexed, sonicated, and then centrifuged at 18,000 rpm for 10 min at 4°C. The resulting supernatant was used for further analysis.
(§3) Liquid chromatographic separation was performed using an AB SCIEX LC™ 2.0 system (AB SCIEX, United States) fitted with an Acquity UPLC BEH C18 column (100 mm × 2.1 mm, 1.7 μm; Ireland). The mobile phases in negative and positive ion modes consisted of 0.1% FA aqueous solution (A) and acetonitrile containing 0.1% FA (B). The program of the elution gradient was set as follows: 0∼5 min, 2%∼35 %B; 5∼7 min, 35%∼50%; 7∼10 min, 50%∼70%; 10∼15 min, 70%∼90 %B; 15∼18 min, 90%∼90 %B; 18∼18.5 min, 90%∼2 %B; and 18.5∼20 min, 2%∼2 %B. The injection volume was 3 µL. The flow rate and the column temperature were set at 0.3 mL/min and 40°C, respectively.
(§4) The mass spectrometry analysis was performed on a SCIEX ZenoTOF™ 7600 system (AB SCIEX, United States), which was calibrated in the high-sensitivity mode for every 10 samples. Spectra were acquired in the TOF/MS-IDA-TOF MS/MS mode with the ESI source operating in positive and negative ion modes. MS parameters were set as follows: ionization source, ESI; spray voltage, 5,500 kV/–4,500 kV; collision energy, 40 V/–40 V; declustering potential, 80 V/–80 V; ion source temperature, 550°C; and scan range, 100–1250 m/z. Data acquisition and processing were performed using SCIEX OS 2.2 and PeakView 2.2.
(§5) A semi-quantitative method was adopted based on the correction peak area versus time ([Wang et al., 2011]; [Lin et al., 2019]). The mean serum time-course profile of pharmacokinetics based on the peak area ratio versus time was plotted using Origin 2018. The kinetic analysis of the peak area ratio (×1,000)–time curve was calculated using Phoenix WinNonlin 8.1 (Phoenix, American) software and illustrated.

[1] = set-up: AUC(0→t) / Cmax: unit not given beside the values; conditions: rat, in vivo
DN = system: DN; set-up: method as in Guo et al., 2017; conditions: in vitro and in vivo; ref Guo et al., 2017; cited from earlier work
DN mice = system: DN mice; set-up: method as in Tian et al., 2018; conditions: ref Tian et al., 2018; cited from earlier work
[2] = Multi-compound pharmacokinetics of ZJTSD in rat serum, semi-quantitative UPLC-Q/TOF-MS (peak area ratio versus time, non-compartmental); conditions: male, Sprague-Dawley, rat, serum (hepatic portal vein blood), po, 1 mL/100 g body weight
Description: as §1, §2, §3, §4, §5

Row | AUC(0→t) [1] | Cmax [1] | AUC (in words) ([1]; po) | pharmacokinetic behavior compared with other prototype compounds and metabolites (in words) ([1]; po) | MRT(0→t) [1] | t1/2 [1] | Structure (SMILES) | also measured
1 | 119599.26±21102.35 | 26478.39±12536.14 | – | – | – | – | Cc1cc(O)c2c(c1)C(=O)c1cccc(O)c1C2=O [P13, Chrysophanol] | MRT last (in vivo): 4.89 ± 0.61 h; Tmax (in vivo): 1.67 ± 2.02 h; half-life (in vivo): 2.42 ± 1.63 h; level of exposure in the blood (in words) ([1]; po): higher level of exposure; effect on progression of DN (DN): significantly slowed the progression of DN
2 | – | – | greater | better pharmacokinetic behavior | – | – | Cc1cc(O)c2c(c1)C(=O)c1cccc(O)c1C2=O [M56] | Cmax / peak concentration (in words) ([1]; po): higher peak concentrations; Tmax ([1]; po): ≤ 3.5 h; elimination half-life (t1/2) ([1]; po): > 7.5 h; time to peak (in words) ([1]; po): faster time to peak
3 | – | – | greater | better pharmacokinetic behavior | – | – | Oc1ccccc1O [M94] | Tmax ([1]; po): ≤ 3.5 h; elimination half-life (t1/2) ([1]; po): > 7.5 h
4 | 406691.82±79143.95 | 79253.50±34585.36 | – | – | 5.64±1.31 | 1.98±0.38 | Cc1cc(O)c2c(c1)C(=O)c1cc(C(=O)O)cc(O)c1C2=O [P19, 6-Methyl-rhein] | –
5 | 3.73±0.45 | 0.77±0.18 | – | – | 6.10±1.53 | 4.16±2.01 | COc1ccc2c(c1OC)O[C@H]1c3ccc(O)cc3OC[C@@H]21 [P8, Methylnissolin] | Tmax [1]: 0.42±0.14
6 | – | – | – | – | – | – | Cc1cc(O)c2c(c1)C(=O)c1cc(O)cc(O)c1C2=O [P16, Emodin] | effect on urinary albumin, serum creatinine and blood urea nitrogen (DN mice): improved urinary albumin, serum creatinine, and blood urea nitrogen levels; detection in serum / absorbed form ([1]; po): absorbed as prototype compounds; MRT last [2]: 5.84 ± 0.37 h; Tmax [2]: 2.83 ± 2.02 h; half-life ([2]; t1/2, prototype compounds of ZJTSD absorbed into rat serum, mean±SD, n=3): 8.19 ± 9.39 h
7 | 1.05±0.08 | 0.23±0.06 | – | – | 6.76±1.16 | 7.53±1.65 | Cc1cc(O[C@@H]2O[C@H](CO)[C@@H](O)[C@H](O)[C@H]2O)cc2oc(CC(C)O)cc(=O)c12 (stereo partly drawn) [P7, 2-(2-Hydroxypropyl)-5-methyl-7-hydroxychromone-7-O-β-D-glucoside] | Tmax [1]: 0.92±0.95
8 | 49952.22±8257.37 | 15105.85±4254.91 | – | better pharmacokinetic behavior | 4.30±0.34 | 3.38±0.96 | COc1cccc2c1C(=O)c1c(O)cc(C)cc1C2=O [P20, 8-Methyl chrysophanol] | Tmax [1]: 0.67±0.29; level of exposure in the blood (in words) ([1]; po): higher level of exposure
9 | – | – | greater | – | – | – | Cc1cc(O)c2c(c1)C(=O)c1cc(O)ccc1C2=O [M61] | –
10 | – | – | greater | better pharmacokinetic behavior | – | – | Cc1ccc2c(c1)C(=O)c1cc(OS(=O)(=O)O)ccc1C2=O [M26] | Tmax ([1]; po): ≤ 3.5 h; elimination half-life (t1/2) ([1]; po): less than 4 h

Row | Structure (SMILES) | AUC(0→t) [1] | Cmax [1] | AUC (in words) ([1]; po) | pharmacokinetic behavior compared with other prototype compounds and metabolites (in words) ([1]; po) | MRT(0→t) [1] | t1/2 [1] | also measured
11 | CCCCOC(=O)c1ccccc1C(=O)OCCCC [P49, Dibutyl phthalate] | 542.84±7.58 | 26.50±1.13 | – | – | – | – | MRT last (in vivo): 12.1 ± 0.17 h; Tmax (in vivo): 8.08 ± 6.78 h
12 | CCCCCCCCCCCCCCCC(=O)OC[C@@H](O)COP(=O)([O-])OCC[N+](C)(C)C [P50, 1-O-Hexadecanoyl-sn-glycero-3-phosphocholine] | 149276.86±8351.53 | 11488.73±739.96 | – | – | – | – | MRT last (in vivo): 10.2 ± 0.58 h; Tmax (in vivo): 1 ± 0.87 h; half-life (in vivo): 21.9 ± 12.8 h
